Square brackets hold non-standard residues; d marks the D form. Ends that are not written are not given here.
Tests used:
C57BL6 mice [1] = assay: Ang II-induced cardiomyopathy: echocardiography and heart weight after 4 weeks; type: in vivo, mouse; settings: for Ea/Aa / LVMI: 4 weeks Ang II 1.1 mg/kg/d with or without SS-31 3 mg/kg/d; for heart weight (normalized to tibia length): 4 weeks Ang II with or without SS-31, saline 5.3±0.18; for change in LV end diastolic diameter (LVEDD) / change in fractional shortening (FS, systolic function): in the presence or absence of SS-31
Procedure: (§1) Mouse experiments, drug delivery, echocardiography and blood pressure measurement. All animal experiments were approved by the University of Washington Institutional Animal Care and Use Committee. C57BL6 mice were housed in a barrier specific pathogen-free facility. Six to ten mice were included in each experimental group (Saline, Ang II, Ang II+SS-31, WT, Gαq, Gαq+SS-31). A pressor dose of Ang II (1.1 mg/kg/d) was continuously administered for 4 weeks using subcutaneous Alzet 1004 osmotic minipumps, with or without addition of SS-31 (3 mg/kg/d). Echocardiography was performed at baseline and after 4 weeks of pump implantation using a Siemens Acuson CV-70 equipped with a 13 MHz probe. Under 0.5% isoflurane to reduce agitation, standard M-mode, conventional and Tissue Doppler images were taken, and functional calculations were performed according to American Society of Echocardiography guidelines. MP1 was calculated as the ratio of the sum of isovolemic contraction and relaxation time to LV ejection time. An increase in MPI is an indication that a greater fraction of systole is spent to cope with the pressure changes during the isovolemic phases. As a reference for SS-31 peptide effect in Ang II treated mice, a genetic mouse model of Rosa-26 inducible-mCAT was included, in which mitochondrial catalase was overexpressed two weeks before Ang II treatment.

NADPH oxidase = NADPH oxidase activity in ventricular protein extract after 4 weeks of Ang II; type: in vivo, mouse; settings: 4 weeks Ang II (vs. saline) or Ang II + SS-31 (vs. Ang II)
Procedure: as §1, with “An increase in MPI is an indication that a greater fraction of systole is spent to cope with the pressure changes during the isovolemic phases. As a reference for SS-31 peptide effect in Ang II treated mice, a genetic mouse model of Rosa-26 inducible-mCAT was included, in which mitochondrial catalase was overexpressed two weeks before Ang II treatment.” left out
NADPH Oxidase activity. […] In brief, […] of ventricular protein extract was incubated with dihydroethidium (DHE, 10 μM), sperm DNA (1.25 μg/ml), and NADPH (50 μM) in PBS/DTPA (containing 100 μM DTPA), The assay was incubated at 37° C. in the dark for 30 min and the fluorescence was detected using excitation/emission of 490/580 nm.

[2] = tested on: ANP, Collagen 1a2, PGC1-α, TFAM, NRF-1, NRF-2; assay: Quantitative PCR of cardiac gene expression after 4 weeks of Ang II; type: in vivo, mouse; settings: for expression of PGC-1α and downstream target genes TFAM, NRF-1 and NRF-2: 4 weeks Ang II (vs. saline) or Ang II + SS-31 (vs. Ang II)
Procedure: as §1
(§2) Quantitative PCR. Gene expression was quantified by quantitative real time PCR using an Applied Biosystems 7900 themocycler with Taqman Gene Expression Assays on Demand, which included: PGC1-α (Mm00731216), TFAM (Mm00447485), NRF-1 (Mm00447996), NRF-2 (Mm00487471), Collagen 1a2 (Mm00483937), and ANP (Mm01255747). Expression assays were normalized to 18S RNA.

neonatal cardiomyocytes = assay: Mitosox flow cytometry of mitochondrial ROS in neonatal cardiomyocytes stimulated with Ang II; type: cell-based, mouse; settings: for effect on Ang II-induced Mitosox fluorescence / mitochondrial ROS: SS-31 1 nM or NAC 0.5 mM together with Ang II 1 μM for 3 hours
Procedure: Neonatal mouse cardiomyocyte culture and flow cytometry. Ventricles from mouse neonates younger than 72 hours were dissected, minced, and enzymatically digested with Blendzyme 4 (45 μg/ml, Roche). After enzymatic digestion, cardiomyocytes were enriched using differential pre-plating for 2 hours, then seeded on fibronectin-coated culture dishes for 24 hours in DMEM (Gibco), with 20% Fetal Bovine Serum (Sigma) and 25 μM Arabinosylcytosine (Sigma). Cardiomyocytes were stimulated with Angiotensin II (1 μM) for 3 hours in serum-free DMEM containing 0.5% insulin transferrin-selenium (Sigma), 2 mM glutamine, and 1 mg/ml of BSA. Cardiomyocytes were simultaneously treated with either of the following: SS-31 (1 nM), N-acetyl cysteine (NAC: 0.5 mM), or PBS control. To measure mitochondrial superoxide concentration, Mitosox (5 μM) was incubated for 30 min at 37° C. to load cardiomyocytes, followed by 2 washes, with Hanks Balanced Salt Solution. Samples were analyzed using excitation/emission of 488/625 nm by flow cytometry. Flow data was analyzed using FCS Express (De Novo Software, Los Angeles, CA), and presented as histogram distributions of Mitosox fluorescence intensity.

[3] = tested on: mitochondrial protein carbonyl groups; assay: Cardiac mitochondrial protein carbonyl ELISA after 4 weeks of Ang II; type: in vivo, mouse; settings: 4 weeks Ang II (vs. saline) or Ang II + SS-31 (vs. Ang II)
Procedure: as §1, with “treatment. […]” for “treatment.”

[4] = tested on: cleaved caspase-3, phospho-p38 MAP kinase, p38; assay: Western immunoblots of cardiac protein extracts after 4 weeks of Ang II; type: in vivo, mouse; settings: for phosphorylation of p38 MAPK: 4 weeks Ang II (vs. saline) or Ang II + SS-31 (vs. Ang II)
Procedure: as §1
Western Immunoblots. Cardiac protein extracts were prepared by homogenization in lysis buffer containing protease and phosphatase inhibitors on ice (1.5 mM KCl, 50 mM Tris HCl, 0.125% Sodium deoxycholate, 0.375% Triton X 100, 0.15% NP40, 3 mM EDTA). The samples were sonicated and centrifuged at 10,000 g for 15 min in 4° C. The supernatant was collected and the concentration was determined using a BCA assay (Pierce Thermo Scientific, Rockford, IL). Total protein (25 μg) was separated on NuPAGE 4-12% Bis-Tris gel (Invitrogen) and transferred to 0.45 μm PVDF membrane (Millipore), and then blocked in 5% non-fat dry milk in Tris-buffer solution with 0.1% Tween-20 for 1 hour. Primary antibodies were incubated overnight, and secondary antibodies were incubated for 1 hour. The primary antibodies included: rabbit monoclonal anti-cleaved caspase-3 (Cell Signaling), mouse monoclonal anti-GAPDH (Millipore), rabbit polyclonal phospho-p38 MAP kinase (Cell Signaling), and mouse monoclonal anti-p38 (Santa Cruz Biotechnology). The enhanced chemiluminescence method (Thermo Scientific) was used for detection. Image Quant ver.2.0 was used to quantified the relative band density as a ratio to GAPDH (internal control). All samples were normalized to the same cardiac protein sample.

C57BL6 mice [5] = assay: Blood pressure by intravascular telemetry after pressor dose of Ang II; type: in vivo, mouse
Procedure: as §1
Blood pressure was measured in a separate group of mice by telemetry using an intravascular catheter PA-C10 (DSI, MN), in which measurement was performed every three hours starting from 2 days before pump placement until 2 days after Ang pump placement.

C57BL6 mice [6] = assay: Quantitative pathology of ventricular fibrosis (Masson Trichrome) after 4 weeks of Ang II; type: in vivo, mouse
Procedure: as §1, with “As a reference for SS-31 peptide effect in Ang II treated mice, a genetic mouse model of Rosa-26 inducible-mCAT was included, in which mitochondrial catalase was overexpressed two weeks before Ang II treatment.” left out
Quantitative Pathology. […] Quantitative analysis of fibrosis was performed by measuring the percentage of blue-staining fibrotic tissue relative to the total cross-sectional area of the ventricles.

mu-opioid receptor = mu-opioid receptor (Homo sapiens, UniProt P35372); assay: mu-opioid receptor agonist activity (stated, no method); type: biochemical; settings: stated in the description, no test described
Chain of mu-opioid receptor (P35372 whole entry, species assumed): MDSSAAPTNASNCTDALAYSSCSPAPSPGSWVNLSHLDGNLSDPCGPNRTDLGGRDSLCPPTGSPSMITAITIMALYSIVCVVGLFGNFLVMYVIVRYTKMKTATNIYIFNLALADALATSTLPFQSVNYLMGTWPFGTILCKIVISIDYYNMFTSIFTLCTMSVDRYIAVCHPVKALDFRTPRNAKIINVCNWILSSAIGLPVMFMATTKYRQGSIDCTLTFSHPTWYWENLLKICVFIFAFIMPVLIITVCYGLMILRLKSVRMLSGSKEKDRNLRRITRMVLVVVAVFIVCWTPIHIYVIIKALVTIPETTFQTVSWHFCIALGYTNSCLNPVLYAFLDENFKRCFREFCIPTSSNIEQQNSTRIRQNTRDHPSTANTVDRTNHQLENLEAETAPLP

Gαq overexpressing mice = assay: Gαq overexpression-induced heart failure: echocardiography, organ weights, fibrosis, qPCR, protein carbonyls; type: in vivo, mouse
Procedure: as §1
Quantitative Pathology. Ventricular tissues were cut into transverse slices, and subsequently embedded with paraffin, sectioned, and subjected to Masson Trichrome staining. Quantitative analysis of fibrosis was performed by measuring the percentage of blue-staining fibrotic tissue relative to the total cross-sectional area of the ventricles.
Measurement of mitochondrial protein carbonyl groups. For mitochondrial protein extraction, ventricular tissues were homogenized in mitochondrial isolation buffer (1 mM EGTA, 10 mM HEPES, 250 mM sucrose, 10 mM Tris-HCl, pH 7.4). The lysates were centrifuged for 7 min at 800 g in 4° C. The supernatants were then centrifuged for 30 min at 4000 g in 4° C. The crude mitochondria pellets were resuspended in small volume of mitochondrial isolation buffer, sonicated on ice to disrupt the membrane, and treated with 1% streptomycin sulfate to precipitate mitochondrial nucleic acids. The OxiSelect™ Protein Carbonyl ELISA Kit (Cell Biolabs) was used to analyze 1 μg of protein sample per assay. The ELISA was performed according to the instruction manual, with slight modification. Briefly, protein samples were reacted with dinitrophenylhydrazine (DNPH) and probed with anti-DNPH antibody, followed by HRP conjugated secondary antibody. The anti-DNPH antibody and HRP conjugated secondary antibody concentrations were 1:2500 and 1:4000, respectively.
as §2

[7] = tested on: several mammalian cell types; settings: energy-independent manner; cited from earlier work
[8] = Ang II 1.1 mg/kg/d subcutaneous pump, FIG. 2B
[9] = Ang+SS-31 (3 mg/kg/d) vs. Ang, 4 weeks
[10] = SS-31 3 mg/kg/d with Ang II, 4 weeks
[11] = Gαq mice, SS-31 3 mg/kg/d for 4 weeks

## Angiotensin II [Ang II]
C57BL6 mice [1]
  Ea/Aa: 0.723±0.15
  LVMI: 6.32 ± 0.39 mg/g
  heart weight (normalized to tibia length): 7.69±0.20 mg/mm
C57BL6 mice [1]; 4 weeks of Ang II
  increase in heart weights above saline treated control hearts: 45%
  change in LV end diastolic diameter (LVEDD): no change
  change in fractional shortening (FS, systolic function): no change
C57BL6 mice [1]; 4 weeks of Ang II 1.1 mg/kg/d
  decline in Ea/Aa (diastolic function): ~35%
  increase in left ventricular mass index (LVMI) compared with baseline: approximately 2 fold
NADPH oxidase
  cardiac NADPH oxidase activity: significantly increased
[2]
  expression of PGC-1α and downstream target genes TFAM, NRF-1 and NRF-2: induced the expression
[2]; 4 weeks of Ang II
  increase in ANP gene expression: ~15 fold
  increase in Coll1a2 gene expression: ~2.5 fold
Neonatal cardiomyocytes; Ang II 1 μM, 3 hours, neonatal cardiomyocytes
  increase of Mitosox fluorescence (indicator of mitochondrial superoxide): approximately 2 fold
[3]
  ventricular mitochondrial protein carbonyl content: significantly increased
[4]
  phosphorylation of p38 MAPK: increased
[4]; 4 weeks of Ang II
  increase in cleaved (activated) caspase-3 in left ventricular tissue: approximately 3 fold
[4]; 4 weeks of Ang II, FIG. 6C
  protein levels of p38 MAP kinase: increased
C57BL6 mice [5]; Ang II 1.1 mg/kg/d
  increase in systolic and diastolic blood pressure above baseline: 25-28 mm Hg
C57BL6 mice [5]; [8]
  increase in diastolic pressure: 24.8 mm Hg
  increase in systolic blood pressure: 27.2 mm Hg
C57BL6 mice [5]; Ang II 1.1 mg/kg/d, baseline 94.5±3.5
  diastolic blood pressure after Ang II: 119.3±4.0 mm Hg
C57BL6 mice [6]; 4 weeks of Ang II
  increase in ventricular fibrosis (blue staining on trichrome): greater than 3 fold

## Tyr-D-Arg-Phe-Lys-NH2 [SS-01]
mu-opioid receptor
  mu-opioid receptor agonist activity: has mu-opioid receptor agonist activity

## CC(=O)N[C@@H](CS)C(=O)O [N-acetyl cysteine]
Neonatal cardiomyocytes
  effect on Ang II-induced Mitosox fluorescence / mitochondrial ROS: did not show any effect

## D-Arg-2′,6′-Dmt-Lys-Phe-NH2 [SS-31]
C57BL6 mice [1]
  Ea/Aa: 1.17±0.11
  LVMI: 4.21 ± 0.17 mg/g
  heart weight (normalized to tibia length): 6.05±0.135 mg/mm
C57BL6 mice [1]; 4 weeks of Ang II
  change in LV end diastolic diameter (LVEDD): not significantly changed
  change in fractional shortening (FS, systolic function): not significantly changed
C57BL6 mice [1]; [9]
  better preservation of Ea/Aa: 38%
  reduction of LVMI: 33%
mu-opioid receptor
  mu-opioid receptor agonist activity: does not have mu-opioid receptor agonist activity
NADPH oxidase
  cardiac NADPH oxidase activity: not changed
[2]
  expression of PGC-1α and downstream target genes TFAM, NRF-1 and NRF-2: fully prevent the upregulation
[2]; [10]
  effect on Ang II-induced ANP gene expression: almost completely protected
  effect on Ang II-induced Coll1a2 gene expression: almost fully attenuated
Neonatal cardiomyocytes
  effect on Ang II-induced Mitosox fluorescence / mitochondrial ROS: reduced Ang II-induced mitosox fluorescence to the level similar to that of saline treated cardiomyocytes
[3]
  ventricular mitochondrial protein carbonyl content: significantly reduced
[4]
  phosphorylation of p38 MAPK: significantly and nearly fully attenuated
[4]; [10]
  effect on activation of caspase-3 caused by Ang II: completely prevented
Gαq overexpressing mice; Gαq mice at 16 weeks of age, SS-31 3 mg/kg/d for 4 weeks
  cardiac enlargement (normalized heart weight): substantially reduced
Gαq overexpressing mice; Gαq mice at 16 weeks of age, SS-31 3 mg/kg/d for 4 weeks, borderline significance p=0.09
  increase in lung weights (lung congestion): slightly attenuated
Gαq overexpressing mice; Gαq mice, 4 weeks of SS-31 treatment
  cardiac expression of Coll1a2 gene: not significantly altered
Gαq overexpressing mice; [11]
  Gαq overexpression-induced heart failure (phenotype overall): partially rescued
  cardiac mitochondrial protein carbonyls: significant reduction
  ventricular fibrosis: not changed
Gαq overexpressing mice; Gαq mice, SS-31 3 mg/kg/d from 12 to 16 weeks of age
  myocardial performance (MPI): improved
Gαq overexpressing mice; Gαq mice, SS-31 3 mg/kg/d from 12 to 16 weeks of age, vs. untreated Gαq
  systolic function (FS): significantly ameliorated
Gαq overexpressing mice; Gαq mice, SS-31 3 mg/kg/d from 12 to 16 weeks of age, borderline significance p=0.06
  Ea/Aa (diastolic function): better preserved
Gαq overexpressing mice; Gαq mice, SS-31 3 mg/kg/d from 12 to 16 weeks of age, p=0.08
  LV chamber enlargement: slightly reduced
C57BL6 mice [5]; SS-31 3 mg/kg/d simultaneously with Ang II 1.1 mg/kg/d
  effect on blood pressure: did not show any effect
C57BL6 mice [6]; [10]
  effect on Ang II-induced ventricular fibrosis: fully attenuated

## F[dR]FK-NH2 [SS-20]
mu-opioid receptor
  mu-opioid receptor agonist activity: does not have mu-opioid receptor agonist activity

## 2′,6′-Dmt-D-Arg-Phe-Lys-NH2 [SS-02]
[7]
  penetration of the plasma membrane: readily penetrates the plasma membrane

Reference: patent US12102659B2, “Methods for the prevention or treatment of heart failure” (Cornell University, priority 2009, dated 2024)
